In data set [1] the test system is Sam68(PxxP)-FynSH3 interaction. The conditions noted are these: Oneyama et al. 2002; cited from earlier work.
The next data set has as its target Tau-FynSH3 interaction (Homo sapiens (Human), UniProt P10636). In words: Tau-FynSH3 AlphaScreen. It is filed as binding. To be noted: Table 3; read-out: Alpha screen IC50. The text has this:
Human Fyn-SH3 domain with GST-tag at the N-terminus and a Strep-tag II ([…]) at the C-terminus (GST-Fyn-SH3-Strep) was cloned into pPR-IBA1 vector (IBA Lifesciences) (Cochran, et al. (2014) J. Biomol. Screen. 19, 1338-1349). Codon-optimized human 4R2N Tau for E. coli expression with a Strep-tag II at the C-terminus (His-Tau-Strep) was cloned into pET-28a(+) vector (Novagen). The constructs were transformed into E. coli BL-21(DE3) competent cells (Novagen). For GST-Fyn-SH3-Strep purification, a single colony was inoculated in Luria-Bertani (LB) broth at 37° C. overnight. 10 mL cell culture was added into 500 mL LB medium and cultured at 37° C. 0.5 mM Isopropyl β-D-1-thiogalactopyranoside (IPTG) was added into the culture when OD600 reached 0.7. Cells were further cultured at 25° C. for 4 hours and harvested. Cell pellet was resuspended in lysis buffer (20 mM Tris pH 7.9, 300 mM NaCl, 1 mM TCEP) with 1 tablet of EDTA-free protease inhibitors (ThermoFisher) and 1 mg/ml lysozyme. Cells were disrupted by sonication and debris was removed by centrifugation at 9500 rpm for 1 hour. Supernatant was loaded onto a glutathione-sepharose column (Cytiva). The column was washed in lysis buffer and protein eluted in lysis buffer containing 25 mM reduced glutathione. For His-Tau-Strep protein purification, cells were inoculated in LB broth medium and cultured at 37° C. overnight. A 10 mL overnight culture was added to 500 mL of auto-induction medium (Studier, F. W. (2005) Protein Expr Purif 41, 207-34) and cells were cultured at 37° C. for about 5 hours. The temperature was lowered to 18° C., and cells were cultured overnight. Cells were harvested and resuspended in lysis buffer with 20 mM imidazole, protease inhibitors, and lysozyme. Cells were disrupted by sonication and cell pellets were spun down at 9500 rpm for 1 hour. Supernatant was loaded onto Ni-NTA column (Cytiva) and the column was washed in lysis buffer with 20 mM imidazole. His-Tau-Strep protein was eluted in lysis buffer containing 400 mM imidazole. Both eluted GST-Fyn-SH3-Strep and His-Tau-Strep protein solutions were passed through G-25 desalting column (Cytiva) with lysis buffer and loaded onto high capacity Strep-Tactin column (IBA Lifesciences). The columns were washed in Buffer W (IBA Life sciences) and proteins were eluted in Buffer E (IBA life sciences). The eluted proteins were passed through G-25 desalting column again. Both GST-Fyn-Strep and His-Tau-Strep proteins were concentrated and diluted 1:1 in ethylene glycol as a cryoprotectant for storage at −80° C.
AlphaScreen was conducted with 10 µg/mL of glutathione donor beads (PerkinElmer, Waltham, MA) and nickel chelate acceptor beads (PerkinElmer) in 10 mM Bis-Tris (pH 7.0), 1 mM TCEP, 0.02% casein, and 0.1% Tween-20. Compounds were plated first followed by addition of one the proteins at 600 nM and incubation for 30 min. The second protein was added and incubated for 30 mn, then the beads were added simultaneously and the final mixture was incubated for 2 hours. Experiments were conducted in 384-well plates (6007290; PerkinElmer) and results were read on a PHERAstar plate reader (BMG Labtech, Cary, NC).
˜50,000 compounds from the Enamine and Southern Research libraries were screened to identify Tau-FynSH3 interaction inhibitors using an AlphaScreen assay (Cochran, et al. (2014) J. Biomol. Screen. 19, 1338-1349). Compounds that were >3 standard deviations above mean inhibition were selected, yielding 1,852 hits (FIG. 1A). […]. These 39 compounds were tested in a live-cell BRET assay to measure Tau-Fyn interaction in cells. […]. Screen. 19, 1338-1349).

A short description of another data set: Solubility. It is filed as physicochemical. The conditions noted are these: Table 3.
Data set [2] is described as follows: Metabolic stability in mouse liver microsomes. It is filed as in vitro ADME. The conditions noted are these: mouse, liver microsomes, Table 3, read-out: ADME t1/2 (min): MLMt1/2.
Data set [3] can be described thus: Metabolic stability in human liver microsomes. It counts as in vitro ADME. The conditions noted are these: Table 3, read-out: ADME t1/2 (min): HLMt1/2. An excerpt: (§1) A computational analysis of the top five hits was then completed to assess the physical attributes of the compounds emerging from the HTS. The target profile for drug-like properties included evaluation of molecular weight (MW), total polar surface area (PSA, the surface sum of all polar atoms on the molecule), solubility, metabolic stability, and partition coefficient (LogD). In general, MW<[…] and PSA <70 Å^2 were targeted, which generally allows for blood-brain barrier (BBB) permeability. Compounds with PSA >100 A^2 are generally poor at permeating cell membranes. Solubility was targeted at >10 μM at pH 7.4 and 40-60% of compound remaining after 60 minutes of incubation in mouse or human liver microsomes (an indicator of compound stability after first-pass metabolism). LogD is the log of the ratio of concentrations of a compound in two immiscible solvents at equilibrium. Values ranging from 2-4 were targeted, typical for CNS drugs. Based on these criteria, compound no. 55 was selected as the top hit for optimization. Compound no.

Data set [4] can be described thus: Partition coefficient (LogD). It counts as physicochemical. The conditions noted are these: Table 3; read-out: ADME LogD.
Text: as §1

For another data set, the system named is primary rat neurons. In words: Modified MTT assay of Aβ toxicity in primary neurons. It is filed as cell-based. The conditions noted are these: Table 3; Aβ toxicity in primary neurons. The text has this:
Primary neuron cultures: All animal procedures were approved by the Institutional Animal Care and Use Committee at the University of Alabama at Birmingham (UAB). As before (Rush, et al. (2020) Neurobiol Dis 134, 104668; Voskobiynyk, et al. (2020) eLife 9, e57354), primary rat neurons were isolated from timed-pregnant Sprague-Dawley rats. Briefly, dams were euthanized with isoflurane anesthesia asphyxiation, and hippocampal tissue was isolated from E19 embryos in Hibernate E, then digested in papain for 10 minutes at 37° C. Neurons were triturated into a single cell suspension in Neurobasal supplemented with B-27, L-Glutamine, and 10% FBS, then plated in 96-well plates coated with PDL and laminin at 30,000 neurons per well in 200 uL medium or in 24-well coated plates with or without coverslips at 50,000 per well. Cultures were maintained at 37° C. with 5% CO2. Twenty-four hours after plating (DIV1), two 50% media changes with Neurobasal plus B-27 and L-Glutamine without FBS, and 5 μM cytosine β-D-arabinofuranoside was added to prevent glial proliferation. 50% media changes were performed at DIV7 and DIV14 with serum-free supplemented Neurobasal and experiments were started at DIV19.
Aβ oligomer preparation: As before (Rush, et al. (2020) Neurobiol Dis 134, 104668), lyophilized recombinant Aβ42 was dissolved in HFIP, dried overnight, then stored at −20° C. until oligomerization. To oligomerize, Aβ was dissolved in DMSO to 1 mM, then diluted to 100 µM in PBS, then sonicated and left on ice for 24 hours. Immediately prior to use, Aβ was centrifuged at 4° C. for 10 minutes at 14,000×g. Vehicle was prepared as well in identical fashion except lacking the Aβ peptide.
Aβ toxicity assays: The modified MTT and MAP2 assays were adapted from a recent study (Rush, et al. (2020) Neurobiol Dis 134, 104668). Briefly, at DIV19, media on the neurons was reduced to […], then compound was added to final concentration of 0 μM, 0.3 μM, 3 μM, or 15 μM with even amounts of DMSO. After 90-minute pretreatment with compound, 2.5 μM Aβ was added.
The modified MTT assay was performed 24 hours after Aβ application. 100 μM MTT was applied to neurons and incubated at 37° C. for one hour. Media was removed, then replaced with 15 μL 1.6% Tween20 in PBS and incubated on a shaker at 100 rpm for 5 minutes. The Tween was then removed and transferred to a 384-well clear-bottom plate and replaced with 15 μL isopropanol. Plates were again agitated for 5 minutes at RT, then isopropanol was transferred to the 384-well plate. Absorbance was then read at 590 nm on a plate reader, with 660 nm used as a reference. The ratio of Tween soluble MTT to isopropanol soluble (Tween-insoluble) MTT was calculated for each sample, then normalized to the vehicle group average.

For a further data set, the target named is Tau-Fyn interaction (Homo sapiens (Human), UniProt P10636). In words: Tau-Fyn PLA screening in HEK-293 cells. It counts as cell-based. To be noted: Table 3; Tau-Fyn PLA. The procedure: Tau-Fyn PLA screening in HEK-293 cells: For Tau-Fyn PLA in HEK-293 cells, we used the same plasmids as before (Rush, et al. (2020) Neurobiol Dis 134, 104668): human 4R2N Tau with an N-terminal mKate2 tag in a pcDNA3.1 vector and human Fyn with an N-terminal Myc tag in a pCMV-Sport6 vector grown in Stellar E. coli. HEK-293 cells were plated on coverslips coated with PDL and laminin in a 24-well plate in DMEM supplemented with 10% FBS and 1% PenStrep. Cells were transfected with 125 ng of Tau-mKate2 and Fyn plasmids with 1.5 μL Fugene in plain DMEM. After 24 hours, compound was applied at 15 μM. Twenty-four hours after application, cells were fixed. PLA protocol was the same as above except for different primary antibodies (Tau5 1:500, Fyn3 1:250). After image acquisition, PLA density was calculated as PLA puncta (as above) divided by cell area to account for differences in confluency. Cell area was defined with ImageJ as % Area after theresholding Tau-mKate2 fluorescence because it filled the cells evenly. Puncta/cell area was then normalized to vehicle-treated slides from that experiment.

pIC50: −log10 of the molar value.

Sequence of Tau-FynSH3 interaction (P10636 other isoform, or with tags, fused parts or gaps): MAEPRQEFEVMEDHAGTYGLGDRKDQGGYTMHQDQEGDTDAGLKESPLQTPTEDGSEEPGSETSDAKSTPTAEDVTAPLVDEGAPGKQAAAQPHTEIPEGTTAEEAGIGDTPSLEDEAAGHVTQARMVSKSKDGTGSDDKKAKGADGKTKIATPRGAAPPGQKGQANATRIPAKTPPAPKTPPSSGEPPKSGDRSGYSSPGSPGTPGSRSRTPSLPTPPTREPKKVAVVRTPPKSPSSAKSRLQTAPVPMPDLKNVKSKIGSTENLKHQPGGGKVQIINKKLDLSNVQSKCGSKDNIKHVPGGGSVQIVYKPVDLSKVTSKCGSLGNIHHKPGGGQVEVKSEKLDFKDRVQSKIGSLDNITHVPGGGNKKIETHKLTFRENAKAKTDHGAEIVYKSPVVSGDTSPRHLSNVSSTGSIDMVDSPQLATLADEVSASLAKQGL
Sequence of Tau-Fyn interaction (P10636 other isoform, or with tags, fused parts or gaps): as above

Consider UCS15A, for which the “Sam68(PxxP)-FynSH3 interaction” value in data set [1] is listed as “inhibits Sam68(PxxP)-FynSH3 interaction”.

Consider `O=C(CCN1C(=O)CSc2cc(Cl)ccc21)Nc1nnc(-c2ccccn2)[nH]1` [compound 8, 3-(7-CHLORO-3-OXO-2H-BENZO[B][1,4]THIAZIN-4(3H)-YL)-N-(5-(PYRIDIN-2-YL)-4H-1,2,4-TRIAZOL-3-YL)PROPANAMIDE], for which the pIC50 on Tau-FynSH3 interaction is 5.57. Also, the “ADME Sol (μM)” value in the data set “Solubility” is given as “Sol = 24 μM”. In addition, the figures for the half-life in data set [2] and in data set [3] were 18 min and 62 min, respectively. Further, the logD in data set [4] amounted to 2.3. For the same compound, in the data set on primary rat neurons, the MTT result was “Active”.

Take `O=C(CN1C(=O)CSc2ccc(Cl)cc21)Nc1nnc(-c2ccccn2)[nH]1` [compound 16, 2-(6-CHLORO-3-OXO-2H-BENZO[B][1,4]THIAZIN-4(3H)-YL)-N-(5-(PYRIDIN-2-YL)-4H-1,2,4-TRIAZOL-3-YL)ACETAMIDE]: the negative logarithm of the IC50 (pIC50) on Tau-FynSH3 interaction was 5.59. The “ADME Sol (μM)” value in “Solubility” is “Sol = 9 μM”. Further, the half-life in data set [2] was determined as 26 min; in data set [3], 74 min. Moreover, the pH-dependent lipophilicity (logD) in data set [4] amounted to 2.3.

Regarding `O=C(CCN1C(=O)CSc2cc(F)ccc21)Nc1nnc(-c2ccccn2)[nH]1` [compound 7, 3-(7-FLUORO-3-Oxo-2H-BENZO[B][1,4]THIAZIN-4(3H)-YL)-N-(5-(PYRIDIN-2-YL)-4H-1,2,4-TRIAZOL-3-YL)PROPANAMIDE], the pIC50 on Tau-FynSH3 interaction is 5.72. Further, in “Solubility”, the “ADME Sol (μM)” value is “Sol = 69 μM”. Also, the half-life in data set [2] was found to be 22 min; in data set [3], 78 min. Moreover, in data set [4], the logD was 2.

On to `O=C(CN1C(=O)CSc2ccc(F)cc21)Nc1nnc(-c2ccccn2)[nH]1` [compound 15, 2-(6-FLUORO-3-OXO-2H-BENZO[B][1,4]THIAZIN-4(3H)-YL)-N-(5-(PYRIDIN-2-YL)-4H-1,2,4-TRIAZOL-3-YL)ACETAMIDE], for which, at Tau-FynSH3 interaction, the pIC50 is 5.97. Further, the “ADME Sol (μM)” value in “Solubility” was “Sol = 65 μM”. Also, the half-life in data set [2] was found to be 53 min; in data set [3] it was 238 min. Further, the logD in data set [4] turned out to be 1.8.

With `COc1ccc2c(c1)N(CC(=O)Nc1nnc(-c3ccccn3)[nH]1)C(=O)CS2` [compound 22, 2-(6-METHOXY-3-OXO-2H-BENZO[B][1,4]THIAZIN-4(3H)-YL)-N-(5-(PYRIDIN-2-YL)-4H-1,2,4-TRIAZOL-3-YL)ACETAMIDE], in “Solubility”, the “ADME Sol (μM)” value is listed as “Sol = 80 μM”. The values for the half-life in data set [2] and in data set [3] were 56 min and 150 min, respectively. Also, the logD in data set [4] amounted to 1.8. Further, the MTT entry in the data set on primary rat neurons is listed as “Active”. The PLA result on Tau-Fyn interaction was “Active”.

Regarding `O=C(Cn1c(=O)sc2ccccc21)Nc1nnc(-c2ccccn2)[nH]1` [compound 26], the negative logarithm of the IC50 (pIC50) on Tau-FynSH3 interaction was 6.00. Besides, in the data set “Solubility”, the “ADME Sol (μM)” value is “Sol = 22 μM”. Moreover, the figures for the half-life in data set [2] and in data set [3] were 82 min and over 300 min, respectively. For the same compound, the logD in data set [4] is 1.5.

Consider `CC1(C)Sc2ccccc2N(CC(=O)Nc2nnc(-c3ccccn3)[nH]2)C1=O` [compound 19], for which the pIC50 at Tau-FynSH3 interaction is 5.82. Moreover, in “Solubility”, the “ADME Sol (μM)” value was “Sol = 20 μM”. Also, the half-life in data set [2] is 8 min; in data set [3] it was 28 min. The logD in data set [4] was 1.3.

Turning to `COc1ccc2c(c1)SCC(=O)N2CC(=O)Nc1nnc(-c2ccccn2)[nH]1` [compound 21, 2-(7-METHOXY-3-OXO-2H-BENZO[B][1,4]THIAZIN-4(3H)-YL)-N-(5-(PYRIDIN-2-YL)-4H-1,2,4-TRIAZOL-3-YL)ACETAMIDE], the pIC50 at Tau-FynSH3 interaction is 5.99. Further, the “ADME Sol (μM)” value in “Solubility” is reported as “Sol = 46 μM”. In addition, the half-life in data set [2] came to 53 min; in data set [3], 175 min. For the same compound, the logD in data set [4] was determined as 1.7.

The record behind these values is patent US20250367209A1 (SOUTHERN RESEARCH INSTITUTE, priority 2022, published 2025).
